Measured values as given in patent US11109593B2, “Isoxazolin-5-one derivative and herbicide containing same as active ingredient” (HOKKO CHEMICAL INDUSTRY CO., LTD., priority 2017, dated 2021).

Test system: Scirpus juncoides
Assay: Test Example 2: herbicidal effect test by treatment during growing period in paddy rice cultivation (seven days after seeding)
Format: in vivo
Conditions: 120 g/10a active ingredient, assessed 14 days after treatment, dry weight vs untreated area
Method in brief: (§1)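 Post-emergence paddy water application: compounds were formulated as emulsions, diluted and dropped into flooded pots seven days after sowing at a rate equivalent to 120 g per 10 ares. Efficacy was taken as dry-weight reduction relative to untreated controls after 14 days.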

Compound | Herbicidal rate (%) Scirpus juncoides [%]
CCCC(C)n1oc(=O)c(Cc2ccccc2N(C(C)=O)S(=O)(=O)C(F)(F)F)c1C (stereo not drawn) [Compound 1-299] | 90
Cc1c(Cc2ccccc2NS(=O)(=O)C(F)(F)F)c(=O)on1CC1CCCO1 (stereo not drawn) [Compound 1-230] | 90
CCC(=O)N(c1ccccc1Cc1c(C)n(CC(C)(C)C)oc1=O)S(=O)(=O)C(F)(F)F [Compound 1-318] | 90

Test system: Echinochloa crus-galli
Assay: as above
Format: in vivo
Conditions: 120 g/10a active ingredient, assessed 14 days after treatment, dry weight vs untreated area
Method in brief: as §1

Compound | Herbicidal rate (%) Echinochloa crus-galli [%]
CCCC(C)n1oc(=O)c(Cc2ccccc2N(C(C)=O)S(=O)(=O)C(F)(F)F)c1C (stereo not drawn) [Compound 1-299] | 100
Cc1c(Cc2ccccc2NS(=O)(=O)C(F)(F)F)c(=O)on1CC1CCCO1 (stereo not drawn) [Compound 1-230] | 90
CCC(=O)N(c1ccccc1Cc1c(C)n(CC(C)(C)C)oc1=O)S(=O)(=O)C(F)(F)F [Compound 1-318] | 90

Test system: broad leaf weeds (Lindernia pyxidaria and Monochoria vaginalis)
Assay: as above
Format: in vivo
Conditions: Lindernia pyxidaria, 120 g/10a active ingredient, assessed 14 days after treatment, dry weight vs untreated area
Method in brief: as §1

Compound | Herbicidal rate (%) Lindernia pyxidaria [%]
CCCC(C)n1oc(=O)c(Cc2ccccc2N(C(C)=O)S(=O)(=O)C(F)(F)F)c1C (stereo not drawn) [Compound 1-299] | 60
Cc1c(Cc2ccccc2NS(=O)(=O)C(F)(F)F)c(=O)on1CC1CCCO1 (stereo not drawn) [Compound 1-230] | 70
CCC(=O)N(c1ccccc1Cc1c(C)n(CC(C)(C)C)oc1=O)S(=O)(=O)C(F)(F)F [Compound 1-318] | 90

Same assay, conditions: Monochoria vaginalis, 120 g/10a active ingredient, assessed 14 days after treatment, dry weight vs untreated area

Compound | Herbicidal rate (%) Monochoria vaginalis [%]
CCCC(C)n1oc(=O)c(Cc2ccccc2N(C(C)=O)S(=O)(=O)C(F)(F)F)c1C (stereo not drawn) [Compound 1-299] | 70
Cc1c(Cc2ccccc2NS(=O)(=O)C(F)(F)F)c(=O)on1CC1CCCO1 (stereo not drawn) [Compound 1-230] | 90
CCC(=O)N(c1ccccc1Cc1c(C)n(CC(C)(C)C)oc1=O)S(=O)(=O)C(F)(F)F [Compound 1-318] | 90

Test system: Scirpus juncoides
Assay: Test Example 1: herbicidal effect test by treatment of rice paddy soil (immediately after seeding)
Format: in vivo
Conditions: 120 g/10a active ingredient, dry weight vs untreated area, 14 days after treatment
Method in brief: (§2)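 Values are herbicidal rates (%) derived from average plant dry weight in treated versus untreated pots 14 days after treatment, run in duplicate. Treatment was a water-diluted emulsion dropped into flooded paddy soil right after sowing, at 120 g active ingredient per 10 ares.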

Compound | Herbicidal rate (%) Scirpus juncoides [%]
CCCC(C)n1oc(=O)c(Cc2ccccc2N(C(C)=O)S(=O)(=O)C(F)(F)F)c1C (stereo not drawn) [Compound 1-299] | 90
Cc1c(Cc2ccccc2NS(=O)(=O)C(F)(F)F)c(=O)on1CC1CCCO1 (stereo not drawn) [Compound 1-230] | 90
CCC(=O)N(c1ccccc1Cc1c(C)n(CC(C)(C)C)oc1=O)S(=O)(=O)C(F)(F)F [Compound 1-318] | 90

Test system: Echinochloa crus-galli
Assay: as above
Format: in vivo
Conditions: 120 g/10a active ingredient, dry weight vs untreated area, 14 days after treatment
Method in brief: as §2

Compound | Herbicidal rate (%) Echinochloa crus-galli [%]
CCCC(C)n1oc(=O)c(Cc2ccccc2N(C(C)=O)S(=O)(=O)C(F)(F)F)c1C (stereo not drawn) [Compound 1-299] | 100
Cc1c(Cc2ccccc2NS(=O)(=O)C(F)(F)F)c(=O)on1CC1CCCO1 (stereo not drawn) [Compound 1-230] | 100
CCC(=O)N(c1ccccc1Cc1c(C)n(CC(C)(C)C)oc1=O)S(=O)(=O)C(F)(F)F [Compound 1-318] | 90

Test system: broad leaf weeds (Lindernia pyxidaria and Monochoria vaginalis)
Assay: as above
Format: in vivo
Conditions: Lindernia pyxidaria, 120 g/10a active ingredient, dry weight vs untreated area, 14 days after treatment
Method in brief: as §2

Compound | Herbicidal rate (%) Lindernia pyxidaria [%]
CCCC(C)n1oc(=O)c(Cc2ccccc2N(C(C)=O)S(=O)(=O)C(F)(F)F)c1C (stereo not drawn) [Compound 1-299] | 100
Cc1c(Cc2ccccc2NS(=O)(=O)C(F)(F)F)c(=O)on1CC1CCCO1 (stereo not drawn) [Compound 1-230] | 100
CCC(=O)N(c1ccccc1Cc1c(C)n(CC(C)(C)C)oc1=O)S(=O)(=O)C(F)(F)F [Compound 1-318] | 90

Same assay, conditions: Monochoria vaginalis, 120 g/10a active ingredient, dry weight vs untreated area, 14 days after treatment

Compound | Herbicidal rate (%) Monochoria vaginalis [%]
CCCC(C)n1oc(=O)c(Cc2ccccc2N(C(C)=O)S(=O)(=O)C(F)(F)F)c1C (stereo not drawn) [Compound 1-299] | 80
Cc1c(Cc2ccccc2NS(=O)(=O)C(F)(F)F)c(=O)on1CC1CCCO1 (stereo not drawn) [Compound 1-230] | 80
CCC(=O)N(c1ccccc1Cc1c(C)n(CC(C)(C)C)oc1=O)S(=O)(=O)C(F)(F)F [Compound 1-318] | 90

Test system: southern crabgrass
Assay: Test Example 3: herbicidal effect test by treatment of dry field farming soil (one day after seeding)
Format: in vivo
Conditions: 120 g/10a active ingredient, evaluated 14 days after treatment
Method in brief: (§3)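 Dry-field alluvium pots; weed seeds incorporated in top 1 cm; soil spray of diluted emulsion 1 d after seeding, 120 g a.i./10 a in 100 L/10 a. Readout: % reduction of dry weight vs untreated, day 14, duplicates.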

Compound | herbicidal rate, southern crabgrass [%]
CCCC(C)n1oc(=O)c(Cc2ccccc2N(C(C)=O)S(=O)(=O)C(F)(F)F)c1C (stereo not drawn) [Compound 1-299] | 80
Cc1c(Cc2ccccc2NS(=O)(=O)C(F)(F)F)c(=O)on1CC1CCCO1 (stereo not drawn) [Compound 1-230] | 100
CCC(=O)N(c1ccccc1Cc1c(C)n(CC(C)(C)C)oc1=O)S(=O)(=O)C(F)(F)F [Compound 1-318] | 90

Test system: Chenopodium album
Assay: as above
Format: in vivo
Conditions: 120 g/10a active ingredient, evaluated 14 days after treatment
Method in brief: as §3

Compound | herbicidal rate, Chenopodium album [%]
CCCC(C)n1oc(=O)c(Cc2ccccc2N(C(C)=O)S(=O)(=O)C(F)(F)F)c1C (stereo not drawn) [Compound 1-299] | 40
Cc1c(Cc2ccccc2NS(=O)(=O)C(F)(F)F)c(=O)on1CC1CCCO1 (stereo not drawn) [Compound 1-230] | 60
CCC(=O)N(c1ccccc1Cc1c(C)n(CC(C)(C)C)oc1=O)S(=O)(=O)C(F)(F)F [Compound 1-318] | 90

Test system: Amaranthus viridis
Assay: as above
Format: in vivo
Conditions: 120 g/10a active ingredient, evaluated 14 days after treatment
Method in brief: as §3

Compound | herbicidal rate, Amaranthus viridis [%]
CCCC(C)n1oc(=O)c(Cc2ccccc2N(C(C)=O)S(=O)(=O)C(F)(F)F)c1C (stereo not drawn) [Compound 1-299] | 70
Cc1c(Cc2ccccc2NS(=O)(=O)C(F)(F)F)c(=O)on1CC1CCCO1 (stereo not drawn) [Compound 1-230] | 60
CCC(=O)N(c1ccccc1Cc1c(C)n(CC(C)(C)C)oc1=O)S(=O)(=O)C(F)(F)F [Compound 1-318] | 90

Test system: Echinochloa crus-galli
Assay: as above
Format: in vivo
Conditions: 120 g/10a active ingredient, evaluated 14 days after treatment
Method in brief: as §3

Compound | herbicidal rate, Echinochloa crus-galli [%]
CCCC(C)n1oc(=O)c(Cc2ccccc2N(C(C)=O)S(=O)(=O)C(F)(F)F)c1C (stereo not drawn) [Compound 1-299] | 90
Cc1c(Cc2ccccc2NS(=O)(=O)C(F)(F)F)c(=O)on1CC1CCCO1 (stereo not drawn) [Compound 1-230] | 100
CCC(=O)N(c1ccccc1Cc1c(C)n(CC(C)(C)C)oc1=O)S(=O)(=O)C(F)(F)F [Compound 1-318] | 90

Test system: southern crabgrass
Assay: Test Example 4: herbicidal effect test by treatment of leave and stem in dry field farming (seven days after seeding)
Format: in vivo
Conditions: 120 g/10a active ingredient; emulsion sprayed seven days after seeding; evaluated 14 days after treatment
Method in brief: (§4)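 Duplicate pots were scored 14 days post-spray by dry weight, herbicidal rate = {1 − treated/untreated average dry weight} × 100. The water-diluted emulsion, equivalent to 120 g active ingredient per 10 ares in 100 L, was applied seven days after sowing 20 seeds each into the upper 1 cm of alluvial soil.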

Compound | herbicidal effect (herbicidal rate), southern crabgrass [%]
CCCC(C)n1oc(=O)c(Cc2ccccc2N(C(C)=O)S(=O)(=O)C(F)(F)F)c1C (stereo not drawn) [Compound 1-299] | 80
Cc1c(Cc2ccccc2NS(=O)(=O)C(F)(F)F)c(=O)on1CC1CCCO1 (stereo not drawn) [Compound 1-230] | 80
CCC(=O)N(c1ccccc1Cc1c(C)n(CC(C)(C)C)oc1=O)S(=O)(=O)C(F)(F)F [Compound 1-318] | 90

Test system: Chenopodium album
Assay: as above
Format: in vivo
Conditions: 120 g/10a active ingredient; emulsion sprayed seven days after seeding; evaluated 14 days after treatment
Method in brief: as §4

Compound | herbicidal effect (herbicidal rate), Chenopodium album [%]
CCCC(C)n1oc(=O)c(Cc2ccccc2N(C(C)=O)S(=O)(=O)C(F)(F)F)c1C (stereo not drawn) [Compound 1-299] | 90
Cc1c(Cc2ccccc2NS(=O)(=O)C(F)(F)F)c(=O)on1CC1CCCO1 (stereo not drawn) [Compound 1-230] | 40
CCC(=O)N(c1ccccc1Cc1c(C)n(CC(C)(C)C)oc1=O)S(=O)(=O)C(F)(F)F [Compound 1-318] | 40

Test system: Amaranthus viridis
Assay: as above
Format: in vivo
Conditions: 120 g/10a active ingredient; emulsion sprayed seven days after seeding; evaluated 14 days after treatment
Method in brief: as §4

Compound | herbicidal effect (herbicidal rate), Amaranthus viridis [%]
CCCC(C)n1oc(=O)c(Cc2ccccc2N(C(C)=O)S(=O)(=O)C(F)(F)F)c1C (stereo not drawn) [Compound 1-299] | 40
Cc1c(Cc2ccccc2NS(=O)(=O)C(F)(F)F)c(=O)on1CC1CCCO1 (stereo not drawn) [Compound 1-230] | 40
CCC(=O)N(c1ccccc1Cc1c(C)n(CC(C)(C)C)oc1=O)S(=O)(=O)C(F)(F)F [Compound 1-318] | 40

Test system: Echinochloa crus-galli
Assay: as above
Format: in vivo
Conditions: 120 g/10a active ingredient; emulsion sprayed seven days after seeding; evaluated 14 days after treatment
Method in brief: as §4

Compound | herbicidal effect (herbicidal rate), Echinochloa crus-galli [%]
CCCC(C)n1oc(=O)c(Cc2ccccc2N(C(C)=O)S(=O)(=O)C(F)(F)F)c1C (stereo not drawn) [Compound 1-299] | 90
Cc1c(Cc2ccccc2NS(=O)(=O)C(F)(F)F)c(=O)on1CC1CCCO1 (stereo not drawn) [Compound 1-230] | 80
CCC(=O)N(c1ccccc1Cc1c(C)n(CC(C)(C)C)oc1=O)S(=O)(=O)C(F)(F)F [Compound 1-318] | 90
